What was measured:
[1] = molecular target: T1, wt human TYK2, catalytic site (Homo sapiens, UniProt P29597); assay: HTRF KinEASE assay, TYK2; format: biochemical; details: 1 μM ATP; read-out: IC50, Activity Toward TYK2
T1 construct: wt human TYK2, catalytic site; purchased SignalChem
T1 sequence (P29597 897-1176 limits assumed): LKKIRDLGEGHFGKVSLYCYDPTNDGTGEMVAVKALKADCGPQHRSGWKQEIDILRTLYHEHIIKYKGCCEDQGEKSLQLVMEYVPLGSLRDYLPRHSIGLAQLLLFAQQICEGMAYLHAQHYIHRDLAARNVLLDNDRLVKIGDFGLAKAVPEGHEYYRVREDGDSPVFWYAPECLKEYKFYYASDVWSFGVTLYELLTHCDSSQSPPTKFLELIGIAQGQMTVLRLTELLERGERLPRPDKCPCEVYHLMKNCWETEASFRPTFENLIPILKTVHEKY
Procedure, shortened: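 HTRF KinEASE-TK readout with 1 μM biotinylated TK substrate in 1× kinase buffer, ≥30 min at room temperature, then antibody/streptavidin-XL665 detection for 60 min. TYK2 at 2 nM with 1 μM ATP; JAK2 at 1 nM with 100 μM ATP. Analysis uses emission ratios.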

[2] = molecular target: T2, wt human LRRK2, catalytic site (Homo sapiens, UniProt Q5S007); assay: TR-FRET LanthaScreen Eu Kinase Binding Assay, LRRK2 wt; details: one range stated for wt and G2019, read-out: IC50, Activity Toward LRRK2(Wt)
T2 construct: 5 nM wt human LRRK2, catalytic site; purchased ThermoFisher
T2 sequence (Q5S007 970-2527 limits assumed): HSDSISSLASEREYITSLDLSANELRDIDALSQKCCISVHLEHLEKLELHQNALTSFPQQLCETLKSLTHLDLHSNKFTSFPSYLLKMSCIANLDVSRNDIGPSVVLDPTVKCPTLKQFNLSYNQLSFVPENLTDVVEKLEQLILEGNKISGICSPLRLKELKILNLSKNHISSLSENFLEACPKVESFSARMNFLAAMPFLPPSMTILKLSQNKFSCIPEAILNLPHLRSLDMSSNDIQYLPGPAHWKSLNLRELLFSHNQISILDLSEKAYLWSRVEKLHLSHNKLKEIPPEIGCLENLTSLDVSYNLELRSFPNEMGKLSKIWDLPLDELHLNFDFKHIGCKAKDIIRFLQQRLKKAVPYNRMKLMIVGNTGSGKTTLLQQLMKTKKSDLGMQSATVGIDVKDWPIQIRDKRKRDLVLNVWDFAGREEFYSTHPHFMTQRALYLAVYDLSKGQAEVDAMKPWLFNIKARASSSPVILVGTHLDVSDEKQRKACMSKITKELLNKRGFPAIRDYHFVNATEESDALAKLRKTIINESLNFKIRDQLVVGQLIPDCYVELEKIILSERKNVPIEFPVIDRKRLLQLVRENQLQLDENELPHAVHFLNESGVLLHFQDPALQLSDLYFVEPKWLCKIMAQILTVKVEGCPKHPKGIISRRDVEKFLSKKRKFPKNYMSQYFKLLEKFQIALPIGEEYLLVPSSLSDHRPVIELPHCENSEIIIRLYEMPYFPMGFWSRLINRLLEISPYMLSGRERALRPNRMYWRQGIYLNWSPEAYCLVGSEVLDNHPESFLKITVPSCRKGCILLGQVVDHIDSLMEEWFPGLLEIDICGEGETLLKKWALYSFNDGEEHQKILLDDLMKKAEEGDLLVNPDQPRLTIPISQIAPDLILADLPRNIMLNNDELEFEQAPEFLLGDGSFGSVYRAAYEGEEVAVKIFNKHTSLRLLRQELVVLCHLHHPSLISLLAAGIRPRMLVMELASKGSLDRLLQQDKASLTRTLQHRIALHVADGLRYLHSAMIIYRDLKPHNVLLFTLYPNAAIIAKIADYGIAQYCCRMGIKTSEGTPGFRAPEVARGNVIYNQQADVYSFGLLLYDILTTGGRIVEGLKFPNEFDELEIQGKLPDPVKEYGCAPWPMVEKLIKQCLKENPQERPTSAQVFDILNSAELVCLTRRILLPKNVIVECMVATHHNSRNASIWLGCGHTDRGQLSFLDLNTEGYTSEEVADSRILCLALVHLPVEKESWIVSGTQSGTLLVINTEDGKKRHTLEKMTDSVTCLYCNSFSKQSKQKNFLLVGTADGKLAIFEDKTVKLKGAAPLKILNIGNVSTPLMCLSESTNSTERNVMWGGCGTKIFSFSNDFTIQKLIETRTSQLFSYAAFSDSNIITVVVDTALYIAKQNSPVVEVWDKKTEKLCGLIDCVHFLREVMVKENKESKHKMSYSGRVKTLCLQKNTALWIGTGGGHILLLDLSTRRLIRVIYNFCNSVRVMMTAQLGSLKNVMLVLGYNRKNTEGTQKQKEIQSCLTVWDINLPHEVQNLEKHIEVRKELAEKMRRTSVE
Procedure, shortened: (§1)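 Emission ratios from TR-FRET were analysed per the LanthaScreen binding protocol after 1 h room-temperature incubation of compound, kinase/antibody and Kinase Tracer 236. Final levels were 5 nM LRRK2 with 2 nM Eu-anti-GST and 10 nM tracer, or 8 nM NUAK1 with 2 nM Eu-anti-His and 5 nM tracer.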

[3] = molecular target: T3, G2019S human LRRK2, catalytic site (Homo sapiens, UniProt Q5S007, G2019S); assay: TR-FRET LanthaScreen Eu Kinase Binding Assay, LRRK2 G2019S; details: LRRK2(G2019); one range stated for wt and G2019; read-out: IC50, Activity Toward LRRK2(G2019)
T3 construct: G2019S human LRRK2, catalytic site; purchased ThermoFisher
T3 sequence (Q5S007 970-2527 G2019S limits assumed): as the sequence (Q5S007 970-2527 limits assumed) above, with G1050S counted along it
Procedure, shortened: as §1

[4] = molecular target: T4, wt human JAK1, catalytic site (Homo sapiens, UniProt P23458); assay: HTRF KinEASE assay, JAK1; format: biochemical; details: 2.5 μM ATP; read-out: IC50, Activity Toward JAK1
T4 construct: wt human JAK1, catalytic site; purchased ThermoFisher
T4 sequence (P23458 875-1153 limits assumed): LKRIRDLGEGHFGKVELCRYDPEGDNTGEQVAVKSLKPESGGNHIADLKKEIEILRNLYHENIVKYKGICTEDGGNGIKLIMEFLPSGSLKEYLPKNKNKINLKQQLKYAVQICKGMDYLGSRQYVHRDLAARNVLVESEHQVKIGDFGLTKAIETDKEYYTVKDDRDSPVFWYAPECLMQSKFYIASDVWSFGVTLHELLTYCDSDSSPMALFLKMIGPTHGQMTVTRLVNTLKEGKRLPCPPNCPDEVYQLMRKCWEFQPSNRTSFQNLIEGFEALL
Procedure, shortened: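 Two-step HTRF KinEASE assay: compound, kinase/biotinylated TK substrate and ATP were incubated at least 30 min at room temperature. Antibody plus streptavidin-XL665 was then added and plates were read after 60 min. Inhibition was derived from emission ratios according to the kit protocol.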

[5] = molecular target: T5, wt human JAK2, catalytic site (Homo sapiens, UniProt O60674); assay: HTRF KinEASE assay, JAK2; format: biochemical; details: assay format not given (Z'-LYTE or HTRF KinEASE); read-out: IC50, Activity Toward JAK2
T5 construct: wt human JAK2, catalytic site; purchased SignalChem
T5 sequence (O60674 849-1124 limits assumed): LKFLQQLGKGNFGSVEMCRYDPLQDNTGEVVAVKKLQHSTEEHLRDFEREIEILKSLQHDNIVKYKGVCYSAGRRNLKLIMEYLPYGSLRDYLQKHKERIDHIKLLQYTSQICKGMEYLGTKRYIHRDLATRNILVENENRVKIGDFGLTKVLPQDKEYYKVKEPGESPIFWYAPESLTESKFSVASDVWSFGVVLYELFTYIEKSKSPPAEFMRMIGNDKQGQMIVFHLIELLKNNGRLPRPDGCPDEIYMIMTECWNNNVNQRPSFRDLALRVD
Method: Basic protocol for HTRF KinEASE assay (Cisbio/FRA) inhibitor studies involved two steps: • Enzymatic step: Addition of 4 μL of test compound in corresponding DMSO dilutions, 4 μL of kinase/substrate mixture, 2 μL of ATP into 384 well small volume plates. Incubation for at least 30 minutes at room temperature. • Detection step: Addition of 5 μL antibody and 5 μL streptavidin-XL665, read plate after 60 minutes. Data analysis of emission ratios according KinEASE assay protocol.
(§2) Kinase and assay components were adjusted to final concentrations according to kit protocol. For TYK2: 2 nM wt human TYK2, catalytic site (SignalChem/CAN), 1 μM HTRF KinEASE-TK Substrate-biotin, 1 μM ATP in 1× Kinase Buffer. For JAK1: 4 nM wt human JAK1, catalytic site (ThermoFisher/USA), 1 μM HTRF KinEASE-TK Substrate-biotin, 2.5 μM ATP in 1× Kinase Buffer. For JAK2: 1 nM wt human JAK2, catalytic site (SignalChem/CAN), 1 μM HTRF KinEASE-TK Substrate-biotin, 100 μM ATP in 1× Kinase Buffer.
as §2

[6] = molecular target: T6, wt human NUAK1, full length (Homo sapiens, UniProt O60285); assay: TR-FRET LanthaScreen Eu Kinase Binding Assay, NUAK1; details: read-out: IC50, Activity Toward NUAK1
T6 construct: 8 nM wt human NUAK1, full length (ThermoFisher/USA); purchased ThermoFisher
T6 sequence (O60285 1-661): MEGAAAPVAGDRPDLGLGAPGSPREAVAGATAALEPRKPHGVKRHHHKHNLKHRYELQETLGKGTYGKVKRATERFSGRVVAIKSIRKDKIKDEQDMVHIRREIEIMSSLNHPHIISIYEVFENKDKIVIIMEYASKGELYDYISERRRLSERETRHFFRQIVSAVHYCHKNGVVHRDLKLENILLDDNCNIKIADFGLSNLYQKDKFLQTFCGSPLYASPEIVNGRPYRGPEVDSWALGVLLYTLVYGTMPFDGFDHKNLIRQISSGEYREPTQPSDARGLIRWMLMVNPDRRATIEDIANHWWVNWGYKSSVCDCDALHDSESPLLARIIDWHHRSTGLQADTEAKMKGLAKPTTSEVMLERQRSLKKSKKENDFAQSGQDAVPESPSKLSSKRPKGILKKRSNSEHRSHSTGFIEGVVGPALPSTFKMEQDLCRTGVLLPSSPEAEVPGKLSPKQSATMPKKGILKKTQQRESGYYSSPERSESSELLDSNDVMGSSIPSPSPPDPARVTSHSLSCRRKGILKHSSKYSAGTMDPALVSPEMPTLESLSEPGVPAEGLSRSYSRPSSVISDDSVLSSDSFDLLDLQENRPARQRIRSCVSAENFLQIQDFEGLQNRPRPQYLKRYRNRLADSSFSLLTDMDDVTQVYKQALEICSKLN
Procedure, shortened: as §1

Row | SMILES | IC50 [1] | IC50 [2] | IC50 [3] | IC50 [4] | IC50 [5] | IC50 [6]
1 | CCc1cnncc1-c1ccc(Nc2cn(-c3c(Cl)cccc3Cl)nc2C(N)=O)cc1 [compound 322, 1-(2,6-dichlorophenyl)-4-((4-(5-ethylpyridazin-4-yl)phenyl)amino)-1H-pyrazole-3-carboxamide] | 10 to 100 nM | 100 to 1000 nM | 100 to 1000 nM | 10 to 100 nM | 100 to 1000 nM | 
2 | NC(=O)c1nn(-c2c(Cl)cccc2Cl)nc1Nc1ccc(C(=O)N2CC(C(N)=O)C2)cc1 [compound 108] | < 10 nM | 100 to 1000 nM | 100 to 1000 nM | < 10 nM | 100 to 1000 nM | 
3 | NC(=O)c1nn(-c2c(Cl)cccc2Cl)nc1Nc1ccc(C(=O)N2CC(F)C2)cc1 [compound 129, 2-(2,6-dichlorophenyl)-5-((4-(3-fluoroazetidine-1-carbonyl)phenyl)amino)-2H-1,2,3-triazole-4-carboxamide] | < 10 nM | 100 to 1000 nM | 100 to 1000 nM | < 10 nM | 100 to 1000 nM | 
4 | CC(C)Cn1cnnc1-c1ccc(Nc2cn(-c3c(Cl)cccc3Cl)nc2C(N)=O)cc1 [compound 203, 1-(2,6-dichlorophenyl)-4-((4-(4-isobutyl-4H-1,2,4-triazol-3-yl)phenyl)amino)-1H-pyrazole-3-carboxamide] | < 10 nM |  |  | 10 to 100 nM | 100 to 1000 nM | 100 to 1000 nM
5 | NC(=O)c1nn(-c2c(Cl)cccc2Cl)cc1Nc1ccc(-n2ncnc2C2COC2)cc1 [compound 347, 1-(2,6-dichlorophenyl)-4-((4-(5-(oxetan-3-yl)-1H-1,2,4-triazol-1-yl)phenyl)amino)-1H-pyrazole-3-carboxamide] | < 10 nM | 100 to 1000 nM | 100 to 1000 nM | 10 to 100 nM | 100 to 1000 nM | 
6 | NC(=O)c1nn(-c2c(Cl)cccc2Cl)nc1Nc1ccc(C(=O)N2CC[C@@H](F)C2)cc1 [compound 106, 2-(2,6-Dichloro-phenyl)-5-[4-((R)-3-fluoro-pyrrolidine-1-carbonyl)-phenylamino]-2H-[1,2,3]triazole-4-carboxylic acid amide] | < 10 nM |  |  | 10 to 100 nM | 100 to 1000 nM | 100 to 1000 nM
7 | Cc1cnnn1-c1ccc(Nc2nn(-c3c(Cl)cccc3Cl)nc2C(N)=O)cc1 [compound 131, 2-(2,6-dichlorophenyl)-5-((4-(5-methyl-1H-1,2,3-triazol-1-yl)phenyl)amino)-2H-1,2,3-triazole-4-carboxamide] | < 10 nM | 100 to 1000 nM | 100 to 1000 nM | 10 to 100 nM | 100 to 1000 nM | 
8 | CCn1cnnc1-c1ccc(Nc2cn(-c3c(Cl)cc(F)cc3Cl)nc2C(N)=O)cc1 [compound 414, 1-(2,6-dichloro-4-fluorophenyl)-4-((4-(4-ethyl-4H-1,2,4-triazol-3-yl)phenyl)amino)-1H-pyrazole-3-carboxamide] | < 10 nM | 100 to 1000 nM | 100 to 1000 nM | 10 to 100 nM | 100 to 1000 nM | 
9 | CN1CCN(C(=O)c2ccc(Nc3cn(-c4c(Cl)cccc4Cl)nc3C(N)=O)cc2)CC1 [compound 32, 1-(2,6-dichlorophenyl)-4-((4-(4-methylpiperazine-1-carbonyl)phenyl)amino)-1H-pyrazole-3-carboxamide] | < 10 nM | 100 to 1000 nM | 100 to 1000 nM | 10 to 100 nM | 100 to 1000 nM | 
10 | NC(=O)c1nn(-c2c(Cl)cccc2Cl)nc1Nc1ccc(-c2nncn2CC(F)F)cc1 [compound 113, 2-(2,6-dichlorophenyl)-5-((4-(4-(2,2-difluoroethyl)-4H-1,2,4-triazol-3-yl)phenyl)amino)-2H-1,2,3-triazole-4-carboxamide] | 10 to 100 nM | 100 to 1000 nM | 100 to 1000 nM | < 10 nM | 100 to 1000 nM | 
11 | CC(C)n1cnnc1-c1ccc(Nc2nn(-c3c(Cl)cccc3Cl)nc2C(N)=O)cc1 [compound 116, 2-(2,6-dichlorophenyl)-5-((4-(4-isopropyl-4H-1,2,4-triazol-3-yl)phenyl)amino)-2H-1,2,3-triazole-4-carboxamide] | < 10 nM | 100 to 1000 nM | 100 to 1000 nM |  | 100 to 1000 nM | 
12 | NC(=O)c1nn(-c2c(Cl)cccc2Cl)cc1Nc1ccc(C(=O)N2CC(F)C2)cc1 [compound 425, 1-(2,6-dichlorophenyl)-4-((4-(3-fluoroazetidine-1-carbonyl)phenyl)amino)-1H-pyrazole-3-carboxamide] | < 10 nM | 100 to 1000 nM | 100 to 1000 nM | 10 to 100 nM | 100 to 1000 nM | 
13 | NC(=O)c1nn(-c2c(Cl)cccc2Cl)cc1Nc1ccc(C(=O)N2CCOCC2)cc1 [compound 17, 1-(2,6-dichlorophenyl)-4-((4-(morpholine-4-carbonyl)phenyl)amino)-1H-pyrazole-3-carboxamide] | < 10 nM | 100 to 1000 nM | 100 to 1000 nM | 10 to 100 nM | 100 to 1000 nM | 
14 | NC(=O)c1nn(-c2c(Cl)cccc2Cl)cc1Nc1ccc(-c2nnc3n2CCOC3)cc1 [compound 57, 1-(2,6-dichlorophenyl)-4-((4-(6,8-dihydro-5H-[1,2,4]triazolo[3,4-c][1,4]oxazin-3-yl)phenyl)amino)-1H-pyrazole-3-carboxamide] | < 10 nM | 100 to 1000 nM | 100 to 1000 nM | 100 to 1000 nM | 100 to 1000 nM | 
15 | COCCCNC(=O)c1ccc(Nc2nn(-c3c(Cl)cccc3Cl)nc2C(N)=O)cc1 [compound 119, 2-(2,6-dichlorophenyl)-5-((4-((3-methoxypropyl)carbamoyl)phenyl)amino)-2H-1,2,3-triazole-4-carboxamide] | 10 to 100 nM |  |  | 10 to 100 nM | 100 to 1000 nM | 
16 | CN(C)C1CCN(C(=O)c2ccc(Nc3nn(-c4c(Cl)cccc4Cl)nc3C(N)=O)cc2)CC1 [compound 122, 2-(2,6-dichlorophenyl)-5-((4-(4-(dimethylamino)piperidine-1-carbonyl)phenyl)amino)-2H-1,2,3-triazole-4-carboxamide] | < 10 nM | 100 to 1000 nM | 100 to 1000 nM | 10 to 100 nM | 100 to 1000 nM | 
17 | N=S1(=O)CCN(C(=O)c2ccc(Nc3nn(-c4c(Cl)cccc4Cl)nc3C(N)=O)cc2)CC1 [compound 169, 2-(2,6-dichlorophenyl)-5-((4-(1-imino-1-oxidothiomorpholine-4-carbonyl)phenyl)amino)-2H-1,2,3-triazole-4-carboxamide] | < 10 nM |  |  | < 10 nM | 100 to 1000 nM | 
